Data published in US20240400564A1 (Syndax Pharmaceuticals, Inc, priority 2021, published 2024).

Molecular target: hERG (Homo sapiens, UniProt Q12809)
Experiment: Patch clamp assay (hERG tail currents, whole-cell)

hERG, sequence (Q12809 whole entry): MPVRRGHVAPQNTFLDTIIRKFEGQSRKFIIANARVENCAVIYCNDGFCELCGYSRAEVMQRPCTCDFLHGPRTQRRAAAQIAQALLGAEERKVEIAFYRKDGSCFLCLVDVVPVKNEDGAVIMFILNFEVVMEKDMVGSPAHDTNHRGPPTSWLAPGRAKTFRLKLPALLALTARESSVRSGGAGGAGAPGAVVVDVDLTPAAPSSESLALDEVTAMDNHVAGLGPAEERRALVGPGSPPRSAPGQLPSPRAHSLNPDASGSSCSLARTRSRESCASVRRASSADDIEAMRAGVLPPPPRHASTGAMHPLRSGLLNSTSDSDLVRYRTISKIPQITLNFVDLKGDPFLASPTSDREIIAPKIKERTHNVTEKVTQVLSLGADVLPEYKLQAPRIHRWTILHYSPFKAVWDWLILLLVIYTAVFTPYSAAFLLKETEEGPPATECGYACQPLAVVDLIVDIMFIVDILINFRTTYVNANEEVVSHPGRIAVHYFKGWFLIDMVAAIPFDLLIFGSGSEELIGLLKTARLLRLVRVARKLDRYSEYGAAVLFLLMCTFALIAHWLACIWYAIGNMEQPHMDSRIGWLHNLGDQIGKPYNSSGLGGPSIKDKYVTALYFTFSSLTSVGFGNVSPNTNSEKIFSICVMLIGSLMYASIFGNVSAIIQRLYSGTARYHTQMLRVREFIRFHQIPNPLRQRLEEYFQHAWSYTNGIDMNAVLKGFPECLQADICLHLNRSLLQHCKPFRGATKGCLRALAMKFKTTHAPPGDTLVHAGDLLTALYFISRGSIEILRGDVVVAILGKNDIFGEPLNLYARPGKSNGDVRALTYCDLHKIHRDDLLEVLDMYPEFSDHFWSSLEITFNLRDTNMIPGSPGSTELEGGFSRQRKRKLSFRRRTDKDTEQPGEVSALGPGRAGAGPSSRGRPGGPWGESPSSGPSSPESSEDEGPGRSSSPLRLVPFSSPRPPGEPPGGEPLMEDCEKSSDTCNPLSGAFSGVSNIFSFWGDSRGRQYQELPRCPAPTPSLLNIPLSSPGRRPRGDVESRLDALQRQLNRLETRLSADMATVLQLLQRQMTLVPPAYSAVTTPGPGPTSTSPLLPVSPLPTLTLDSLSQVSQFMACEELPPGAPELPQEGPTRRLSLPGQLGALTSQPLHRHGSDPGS

Row | SMILES | hERG % Remaining (10 μM compound) | hERG % Remaining (30 μM compound)
1 | CC(C)N(C(=O)c1cc(F)ccc1Oc1cncnc1N1CC2(CCN(C[C@@H]3CC[C@@H](NS(=O)(=O)N(C)C)CO3)CC2)C1)C1CC(F)(F)C1 [Example 113, N-(3,3-Difluorocyclobutyl)-2-((4-(7-(((2S,5R)-5-((N,N-dimethylsulfamoyl)amino)tetrahydro-2H-pyran-2-yl)methyl)-2,7-diazaspiro[3.5]nonan-2-yl)pyrimidin-5-yl)oxy)-5-fluoro-N-isopropylbenzamide] | +++ (≥66%) | ++ (233% and ≤66%)
2 | CCNS(=O)(=O)N[C@@H]1CC[C@@H](CN2CCC3(CC2)CN(c2ncncc2Oc2ccc(F)cc2C(=O)N(CC(F)(F)F)C(C)C)C3)OC1 [Example 153, 2-((4-(7-(((2S,5R)-5-((N-Ethylsulfamoyl)amino)tetrahydro-2H-pyran-2-yl)methyl)-2,7-diazaspiro[3.5]nonan-2-yl)pyrimidin-5-yl)oxy)-5-fluoro-N-isopropyl-N-(2,2,2-trifluoroethyl)benzamide] |  | +++ (≥66%)
3 | CCN(CC)S(=O)(=O)N[C@@H]1CC[C@@H](CN2CCC3(CC2)CN(c2ncncc2Oc2ccc(F)cc2C(=O)N(C(C)C)[C@H]2CCOC2)C3)OC1 [Example 175, 2-((4-(7-(((2S,5R)-5-((N,N-Diethylsulfamoyl)amino)tetrahydro-2H-pyran-2-yl)methyl)-2,7-diazaspiro[3.5]nonan-2-yl)pyrimidin-5-yl)oxy)-5-fluoro-N-isopropyl-N-((S)-tetrahydrofuran-3-yl)benzamide] | ++ (233% and ≤66%) | + (<33%)
4 | C[C@@H]1COC[C@@H](C)N1C(=O)c1cc(F)ccc1Oc1cncnc1N1CC2(CCN(C[C@@H]3CC[C@@H](NS(=O)(=O)N4CCC[C@@H]4C)CO3)CC2)C1 [Example 209, (S)-N-((3R,6S)-6-((2-(5-(2-((3R,5R)-3,5-Dimethylmorpholine-4-carbonyl)-4-fluorophenoxy)pyrimidin-4-yl)-2,7-diazaspiro[3.5]nonan-7-yl)methyl)tetrahydro-2H-pyran-3-yl)-2-methylpyrrolidine-1-sulfonamide] |  | +++ (≥66%)
5 | CC(C)N(C(=O)c1cc(F)ccc1Oc1cncnc1N1CC2(CCN(C[C@@H]3CC[C@@H](NS(=O)(=O)N4CCOCC4)CO3)CC2)C1)C(C)C [Example 78, 5-Fluoro-N,N-diisopropyl-2-((4-(7-(((2S,5R)-5-(morpholine-4-sulfonamido)tetrahydro-2H-pyran-2-yl)methyl)-2,7-diazaspiro[3.5]nonan-2-yl)pyrimidin-5-yl)oxy)benzamide] | +++ (≥66%) | +++ (≥66%)
6 | CC(C)N(CC#N)C(=O)c1cc(F)ccc1Oc1cncnc1N1CC2(CCN(C[C@@H]3CC[C@@H](NS(=O)(=O)N(C)C)CO3)CC2)C1 [Example 181, N-(Cyanomethyl)-2-((4-(7-(((2S,5R)-5-((N,N-dimethylsulfamoyl)amino)tetrahydro-2H-pyran-2-yl)methyl)-2,7-diazaspiro[3.5]nonan-2-yl)pyrimidin-5-yl)oxy)-5-fluoro-N-isopropylbenzamide] |  | +++ (≥66%)
7 | CC(C)N(C(=O)c1cc(F)ccc1Oc1cncnc1N1CC2(CCN(C[C@@H]3CC[C@@H](NS(N)(=O)=O)CO3)CC2)C1)C(C)C [Example 90, 5-Fluoro-N,N-diisopropyl-2-((4-(7-(((2S,5R)-5-(sulfamoylamino)tetrahydro-2H-pyran-2-yl)methyl)-2,7-diazaspiro[3.5]nonan-2-yl)pyrimidin-5-yl)oxy)benzamide] | +++ (≥66%) | +++ (≥66%)
8 | CCN(C(=O)c1cc(F)ccc1Oc1cncnc1N1CC2(CCN(C[C@@H]3CC[C@@H](NS(=O)(=O)NC)CO3)CC2)C1)C(C)C [Example 76, N-Ethyl-5-fluoro-N-isopropyl-2-((4-(7-(((2S,5R)-5-((N-methylsulfamoyl)amino)tetrahydro-2H-pyran-2-yl)methyl)-2,7-diazaspiro[3.5]nonan-2-yl)pyrimidin-5-yl)oxy)benzamide] | +++ (≥66%) | +++ (≥66%)
